# Legend:
# [1] = target: T1, Rho-A (Homo sapiens, UniProt P61586); experiment: Ras GTP Binding Domain Inhibition Assay (Ras Superfamily Assay); conditions: read-out: Rho-A: % inh..
# T1 construct: made in house
# Procedure, shortened: (§1)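 Ni-plate capture of His-tagged protein (10-30 μg/mL, o/n 4° C); cpd 20 μM or dilution series, 1% DMSO, 3 h RT ± Sos 556-1049 last h; 100 nM Cy-labelled GTP 45 min RT; 3× wash; fluorescence read.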
# [2] = tested on: KRas G12D mutant; experiment: as above; conditions: 20 μM compound; for KRas G12D mutant + SOS: % inh.: with SOS; for KRas G12D mutant: % inh.: without SOS
# Procedure, shortened: as §1
# [3] = tested on: KRas Q61H mutant; experiment: as above; conditions: 20 μM compound; for KRas Q61H mutant + SOS: % inh.: with SOS; for KRas Q61H mutant: % inh.: without SOS
# Procedure, shortened: as §1
# [4] = tested on: Akt phosphorylation; experiment: Akt Phosphorylation Assay (western blot), Panc-1; assay type: cell-based, human; conditions: at 10 μM, * = activation
# Procedure, shortened: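 Phospho-Akt (Ser473) was measured by western blot in lysates of KRas G12D Panc-1 cells exposed to test compound for 6 h at 37 °C, either at 10 μM final with 0.3% DMSO or as serial dilutions for IC50. One format used overnight 0.5% FBS starvation followed by a 15 min pulse of 1.5 ng/ml EGF. The other used cells in 10% FBS with no stimulation.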
# T1 sequence (P61586 whole entry, the tested form may be a part): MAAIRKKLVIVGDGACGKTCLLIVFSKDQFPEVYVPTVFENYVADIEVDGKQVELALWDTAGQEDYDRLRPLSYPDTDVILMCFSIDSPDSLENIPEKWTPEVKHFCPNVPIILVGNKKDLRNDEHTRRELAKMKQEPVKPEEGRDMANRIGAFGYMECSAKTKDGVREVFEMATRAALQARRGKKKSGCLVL
SMILES,inhibition at 20 µM [1] [%],KRas G12D mutant + SOS: % inh. [2],KRas G12D mutant: % inh. [2],KRas Q61H mutant + SOS: % inh. [3],KRas Q61H mutant: % inh. [3],% inh of Akt phosphorylation in Panc-1 [4]
"COC1CCCN(c2nc(-c3ccccn3)nn3cc(-c4ccn(C(C)C)n4)c(-c4ccccc4)c23)C1 (racemic) [Compound 27, rac 6-(1-Isopropyl-1H-pyrazol-3-yl)-4-(3-methoxypiperidin-1-yl)-5-phenyl-2-(pyridin-2-yl)pyrrolo[2,1-f][1,2,4]triazine]",1 to 25,0 (0 = 0% inhibition),0 (0 = 0% inhibition),0 (0 = 0% inhibition),A (A = 1-25% inhibition),A* (1-25% activation)
"COc1cccc(Nc2nc(-c3nccn3C)nn3cc(-c4ccn(C(C)C)n4)c(-c4ccccc4)c23)n1 [Compound 23, 6-(1-Isopropyl-1H-pyrazol-3-yl)-N-(6-methoxypyridin-2-yl)-2-(1-methyl-1H-imidazol-2-yl)-5-phenylpyrrolo[2,1-f][1,2,4]triazin-4-amine]",1 to 25,0 (0 = 0% inhibition),A (A = 1-25% inhibition),0 (0 = 0% inhibition),A (A = 1-25% inhibition),D (85-100% inhibition)
"COc1cccc(-c2cn3nc(-c4nccn4C)nc(O)c3c2-c2ccccc2)c1Cl [Compound 28, 6-(2-Chloro-3-methoxyphenyl)-2-(1-methyl-1H-imidazol-2-yl)-5-phenylpyrrolo[2,1-f][1,2,4]triazin-4-ol]",1 to 25,A (A = 1-25% inhibition),A (A = 1-25% inhibition),A (A = 1-25% inhibition),A (A = 1-25% inhibition),A* (1-25% activation)
"COCCNc1nc(-c2nccn2C)nn2cc(-c3cccc(OC)c3Cl)c(-c3ccccc3)c12 [Compound 29, 6-(2-Chloro-3-methoxyphenyl)-N-(2-methoxyethyl)-2-(1-methyl-1H-imidazol-2-yl)-5-phenylpyrrolo[2,1-f][1,2,4]triazin-4-amine]",1 to 25,A (A = 1-25% inhibition),0 (0 = 0% inhibition),0 (0 = 0% inhibition),0 (0 = 0% inhibition),D (85-100% inhibition)
"COCCCNc1nc(-c2nccn2C)nn2cc(-c3cccc(OC)c3Cl)c(-c3ccccc3)c12 [Compound 30, 6-(2-Chloro-3-methoxyphenyl)-N-(3-methoxypropyl)-2-(1-methyl-1H-imidazol-2-yl)-5-phenylpyrrolo[2,1-f][1,2,4]triazin-4-amine]",1 to 25,A (A = 1-25% inhibition),0 (0 = 0% inhibition),0 (0 = 0% inhibition),0 (0 = 0% inhibition),D (85-100% inhibition)
"COc1cccc(-c2cn3nc(-c4nccn4C)nc(N[C@H]4C[C@@H](OC)C4)c3c2-c2ccccc2)c1Cl [Compound 31, 6-(2-Chloro-3-methoxyphenyl)-N-((1s,3s)-3-methoxycyclobutyl)-2-(1-methyl-1H-imidazol-2-yl)-5-phenylpyrrolo[2,1-f][1,2,4]triazin-4-amine]",1 to 25,B (B = 26-49% inhibition),A (A = 1-25% inhibition),A (A = 1-25% inhibition),0 (0 = 0% inhibition),D (85-100% inhibition)
"COc1cccc(-c2cn3nc(-c4nccn4C)nc(N[C@H]4C[C@H](OC)C4)c3c2-c2ccccc2)c1Cl [Compound 32, 6-(2-Chloro-3-methoxyphenyl)-N-((1r,3r)-3-methoxycyclobutyl)-2-(1-methyl-1H-imidazol-2-yl)-5-phenylpyrrolo[2,1-f][1,2,4]triazin-4-amine]",1 to 25,0 (0 = 0% inhibition),0 (0 = 0% inhibition),A (A = 1-25% inhibition),A (A = 1-25% inhibition),D (85-100% inhibition)

# The next lines start with results.
inhibition at 20 µM [1] [%],KRas G12D mutant + SOS: % inh. [2],KRas G12D mutant: % inh. [2],KRas Q61H mutant + SOS: % inh. [3],KRas Q61H mutant: % inh. [3],SMILES,% inh of Akt phosphorylation in Panc-1 [4]
1 to 25,0 (0 = 0% inhibition),A (A = 1-25% inhibition),0 (0 = 0% inhibition),A (A = 1-25% inhibition),"COc1cccc(-c2cn3nc(-c4nccn4C)nc(N[C@@H]4CC[C@H](OC)C4)c3c2-c2ccccc2)c1Cl (racemic) [Compound 33, rac 6-(2-Chloro-3-methoxyphenyl)-N-((1R,3S)-3-methoxycyclopentyl)-2-(1-methyl-1H-imidazol-2-yl)-5-phenylpyrrolo[2,1-f][1,2,4]triazin-4-amine]",D (85-100% inhibition)
1 to 25,A (A = 1-25% inhibition),A (A = 1-25% inhibition),A (A = 1-25% inhibition),A (A = 1-25% inhibition),"CO[C@H]1CC[C@@H](Nc2nc(-c3nccn3C)nn3cc(-c4ccn(C(C)C)n4)c(C(C)C)c23)C1 (racemic) [Compound 36, rac 5-Isopropyl-6-(1-isopropyl-1H-pyrazol-3-yl)-N-((1R,3S)-3-methoxycyclopentyl)-2-(1-methyl-1H-imidazol-2-yl)pyrrolo[2,1-f][1,2,4]triazin-4-amine]",0 (0% inhibition)
1 to 25,0 (0 = 0% inhibition),A (A = 1-25% inhibition),B (B = 26-49% inhibition),B (B = 26-49% inhibition),"COc1cccc(-c2cn3nc(-c4nccn4C)nc(N[C@@H]4CC[C@@H](OC)C4)c3c2-c2ccccc2)c1F (racemic) [Compound 43, rac 6-(2-Fluoro-3-methoxyphenyl)-N-((1R,3R)-3-methoxycyclopentyl)-2-(1-methyl-1H-imidazol-2-yl)-5-phenylpyrrolo[2,1-f][1,2,4]triazin-4-amine]",B (26-49% inhibition)
26 to 49,A (A = 1-25% inhibition),B (B = 26-49% inhibition),D (D = 76-100% inhibition),D (D = 76-100% inhibition),"COc1cccc(-c2cn3nc(-c4nccn4C)nc(N[C@@H]4CC[C@@H](OC)C4)c3c2-c2ccccn2)c1F (racemic) [Compound 46, rac 6-(2-Fluoro-3-methoxyphenyl)-N-((1R,3R)-3-methoxycyclopentyl)-2-(1-methyl-1H-imidazol-2-yl)-5-(pyridin-2-yl)pyrrolo[2,1-f][1,2,4]triazin-4-amine]",0 (0% inhibition)
1 to 25,0 (0 = 0% inhibition),0 (0 = 0% inhibition),A (A = 1-25% inhibition),A (A = 1-25% inhibition),"COCCNc1nc(-c2nccn2C)nn2cc(-c3ccn(C(C)C)n3)c(C(C)C)c12 [Compound 35, 5-Isopropyl-6-(1-isopropyl-1H-pyrazol-3-yl)-N-(2-methoxyethyl)-2-(1-methyl-1H-imidazol-2-yl)pyrrolo[2,1-f][1,2,4]triazin-4-amine]",0 (0% inhibition)
1 to 25,0 (0 = 0% inhibition),0 (0 = 0% inhibition),0 (0 = 0% inhibition),0 (0 = 0% inhibition),"COc1cccc(Nc2nc(-c3nccn3C)nn3ccc(C)c23)n1 [Compound 38, N-(6-Methoxypyridin-2-yl)-5-methyl-2-(1-methyl-1H-imidazol-2-yl)pyrrolo[2,1-f][1,2,4]triazin-4-amine]",0 (0% inhibition)
1 to 25,0 (0 = 0% inhibition),0 (0 = 0% inhibition),A (A = 1-25% inhibition),0 (0 = 0% inhibition),"COc1cccc(Nc2nc(-c3nccn3C)nn3ccc(-c4ccccc4)c23)n1 [Compound 40, N-(6-Methoxypyridin-2-yl)-2-(1-methyl-1H-imidazol-2-yl)-5-phenylpyrrolo[2,1-f][1,2,4]triazin-4-amine]",0 (0% inhibition)
0,A (A = 1-25% inhibition),0 (0 = 0% inhibition),0 (0 = 0% inhibition),0 (0 = 0% inhibition),"Cn1ccnc1-c1nc(OCCN2CCCC2)c2c(-c3ccccc3)ccn2n1 [Compound 41, 2-(1-Methyl-1H-imidazol-2-yl)-5-phenyl-4-(2-(pyrrolidin-1-yl)ethoxy)pyrrolo[2,1-f][1,2,4]triazine]",A* (1-25% activation)
